Source: article PMC10584170, “Machine learning-based phenotypic imaging to characterise the targetable biology of Plasmodium falciparum male gametocytes for the development of transmission-blocking antimalarials” (PLOS Pathogens, 2023)

Legend:
[1] = tested on: P. falciparum female gametocytes; test: P. falciparum Dual Gamete Formation Assay (PfDGFA), female readout (Pfs25-positive female gametes); type: cell-based, Plasmodium falciparum NF54; details: for Average inhibition female (%): average of replicates; for % inhibition female (individual replicates) R1: replicate R1; for % inhibition female (individual replicates) R3: replicate R3; for % inhibition female (individual replicates) R4: replicate R4
In short: (§1)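 Mature NF54 gametocytes (day 14) were incubated with compound for 24 h at 37°C under 1% O2/3% CO2, then triggered with xanthurenic acid ookinete medium plus Cy3-anti-Pfs25. Exflagellation was imaged by brightfield; after a further 24 h at 28°C, Pfs25-positive female gametes were imaged by fluorescence and counted by automated image analysis.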

[2] = tested on: P. falciparum male gametocytes; test: P. falciparum Dual Gamete Formation Assay (PfDGFA), male readout (exflagellation); type: cell-based, Plasmodium falciparum NF54; details: for Average inhibition male (%): average of replicates; for % inhibition male (individual replicates) R1: replicate R1; for % inhibition male (individual replicates) R4: replicate R4; for Activity: hit = >50% inhibition in male or female readout in at least 3 replicates, 0 = no class assigned; for % inhibition male (individual replicates) R3: replicate R3
In short: as §1

[3] = 2µM, 24h preincubation with gametocytes prior to induction of gametogenesis
[4] = 2µM, 24h preincubation, hits selected on >50% inhibition in the female readout across replicates
[5] = 2µM, 24h preincubation, hits selected on >50% inhibition in the male readout across replicates
[6] = PfDGFA at 2µM, 24h preincubation
[7] = 2µM, 24h preincubation, number of replicates with >50% inhibition in the female readout
[8] = 2µM, 24h preincubation, number of replicates with >50% inhibition in the male readout
[9] = PfDGFA at 2µM, 24h preincubation with gametocytes prior to induction of gametogenesis
[10] = PfDGFA at 2µM, 24h preincubation with gametocytes

SMILES: CCCCCCCN1CC[C@@H](CCCc2ccnc3ccc(OC)cc23)[C@@H](CCN)C1.O=C(O)C(=O)O [TCMDC-139278]
- Average inhibition female (%) [1, 3]: 13.3%
- % inhibition female (individual replicates) R1 [1, 3]: 23.8%
- % inhibition female (individual replicates) R3 [1, 3]: -1.7%
- % inhibition female (individual replicates) R4 [1, 3]: 20.4%
- HitlevelF [1, 4]: 0
- Average inhibition male (%) [2, 3]: 60.9%
- % inhibition male (individual replicates) R1 [2, 3]: 62.0%
- % inhibition male (individual replicates) R4 [2, 3]: 48.5%
- HitlevelM [2, 5]: 2
- Activity [2, 6]: 0

SMILES: COc1ccc(COc2cc(NCCCN)nc3ccccc23)cc1 [TCMDC-139286]
- Average inhibition female (%) [1, 3]: 19.5%
- % inhibition female (individual replicates) R1 [1, 3]: 25.0%
- % inhibition female (individual replicates) R3 [1, 3]: 18.0%
- % inhibition female (individual replicates) R4 [1, 3]: 26.8%
- HitlevelF [1, 7]: 0
- Average inhibition male (%) [2, 3]: 30.7%
- % inhibition male (individual replicates) R1 [2, 3]: 52.7%
- % inhibition male (individual replicates) R3 [2, 3]: 36.6%
- % inhibition male (individual replicates) R4 [2, 3]: 44.0%
- HitlevelM [2, 8]: 1

SMILES: COc1cc(NCC(O)CNc2cc(OC)c3ccccc3n2)nc2ccccc12 [TCMDC-139360]
- Average inhibition female (%) [1, 3]: 25.6%
- % inhibition female (individual replicates) R1 [1, 3]: 27.5%
- % inhibition female (individual replicates) R3 [1, 3]: 10.8%
- % inhibition female (individual replicates) R4 [1, 3]: 36.1%
- HitlevelF [1, 7]: 0
- Average inhibition male (%) [2, 3]: 53.4%
- % inhibition male (individual replicates) R1 [2, 3]: 68.1%
- % inhibition male (individual replicates) R3 [2, 3]: 33.7%
- % inhibition male (individual replicates) R4 [2, 3]: 64.9%
- HitlevelM [2, 8]: 2

SMILES: COc1ccc(C(=O)Nc2cc(Cl)c3c(c2)C2CCCN2CC3)cc1C(F)(F)F.Cl (stereo not shown) [TCMDC-139417]
- % inhibition female (individual replicates) R1 [1, 9]: 2.5%
- % inhibition female (individual replicates) R3 [1, 9]: -4.3%
- % inhibition female (individual replicates) R4 [1, 9]: 1.3%
- Average inhibition female (%) [1, 6]: 1.8%
- % inhibition male (individual replicates) R1 [2, 9]: -1.3%
- % inhibition male (individual replicates) R4 [2, 9]: 9.8%
- Average inhibition male (%) [2, 6]: 13.2%

SMILES: N=C(N)Nc1nc(-c2cccc(NC(=O)NCCc3c[nH]c4ccc(OCc5ccccc5)cc34)c2)cs1 [TCMDC-139557]
- Average inhibition female (%) [1, 3]: 5.9%
- % inhibition female (individual replicates) R1 [1, 3]: 1.1%
- % inhibition female (individual replicates) R3 [1, 3]: -17.0%
- % inhibition female (individual replicates) R4 [1, 3]: 37.8%
- HitlevelF [1, 4]: 0
- Average inhibition male (%) [2, 3]: 6.6%
- % inhibition male (individual replicates) R1 [2, 3]: 1.3%
- % inhibition male (individual replicates) R3 [2, 3]: 4.0%
- % inhibition male (individual replicates) R4 [2, 3]: 10.9%
- HitlevelM [2, 5]: 0
- Activity [2, 6]: 0

SMILES: CC(Cc1ccc(CNC(=O)c2ccc(CC(C)NCCc3cccc(Cl)c3)cc2)cc1)NCCc1cccc(Cl)c1 (stereo not shown) [TCMDC-139659]
- Average inhibition female (%) [1, 3]: 5.1%
- % inhibition female (individual replicates) R1 [1, 3]: 10.4%
- % inhibition female (individual replicates) R3 [1, 3]: -19.4%
- % inhibition female (individual replicates) R4 [1, 3]: -1.7%
- HitlevelF [1, 4]: 0
- Average inhibition male (%) [2, 3]: 33.9%
- % inhibition male (individual replicates) R1 [2, 3]: 26.3%
- % inhibition male (individual replicates) R3 [2, 3]: 2.8%
- % inhibition male (individual replicates) R4 [2, 3]: 42.9%
- HitlevelM [2, 5]: 1
- Activity [2, 6]: 0

SMILES: O=C(/C=C/c1ccc(Cl)c(Cl)c1)N1CCC2CC(N3CCC(c4c[nH]c5ccccc45)CC3)CCC2C1 (stereo not shown) [TCMDC-139677]
- Average inhibition female (%) [1, 3]: 4.1%
- % inhibition female (individual replicates) R1 [1, 3]: 10.8%
- % inhibition female (individual replicates) R3 [1, 3]: -1.7%
- % inhibition female (individual replicates) R4 [1, 3]: 7.4%
- HitlevelF [1, 4]: 0
- Average inhibition male (%) [2, 3]: 6.9%
- % inhibition male (individual replicates) R1 [2, 3]: -0.85%
- % inhibition male (individual replicates) R3 [2, 3]: 2.4%
- % inhibition male (individual replicates) R4 [2, 3]: 12.3%
- HitlevelM [2, 5]: 0
- Activity [2, 6]: 0

SMILES: CC(=O)N(Cc1ccc(CC(C)NCCc2cccc(Cl)c2)cc1)Cc1ccc(CC(C)NCCc2cccc(Cl)c2)cc1 (stereo not shown) [TCMDC-139678]
- Average inhibition female (%) [1, 3]: 14.1%
- % inhibition female (individual replicates) R1 [1, 3]: 15.3%
- % inhibition female (individual replicates) R3 [1, 3]: 11.1%
- % inhibition female (individual replicates) R4 [1, 3]: 16.3%
- HitlevelF [1, 4]: 0
- Average inhibition male (%) [2, 3]: 26.9%
- % inhibition male (individual replicates) R1 [2, 3]: 39.1%
- % inhibition male (individual replicates) R3 [2, 3]: 19.2%
- % inhibition male (individual replicates) R4 [2, 3]: 27.9%
- HitlevelM [2, 5]: 0
- Activity [2, 6]: 0

SMILES: COc1ccc(CCNC(C)Cc2ccc(C(=O)Nc3ccc(CC(C)NCCc4cccc(Cl)c4)cc3)cc2)cc1 (stereo not shown) [TCMDC-139750]
- Average inhibition female (%) [1, 10]: 25.6%
- % inhibition female (individual replicates) R1 [1, 10]: 25.4%
- % inhibition female (individual replicates) R3 [1, 10]: 18.2%
- % inhibition female (individual replicates) R4 [1, 10]: 15.5%
- HitlevelF ([1]; number of replicates with >50% inhibition in the female readout, 2µM): 0
- Average inhibition male (%) [2, 10]: 69.1%
- % inhibition male (individual replicates) R1 [2, 10]: 78.2%
- % inhibition male (individual replicates) R3 [2, 10]: 37.9%
- % inhibition male (individual replicates) R4 [2, 10]: 84.9%
- HitlevelM ([2]; number of replicates with >50% inhibition in the male readout, 2µM): 3

SMILES: CC(CCCC(=O)Nc1ccc(CC(C)NCCc2cccc(Cl)c2)cc1)NCCc1cccc(Cl)c1 (stereo not shown) [TCMDC-139798]
- Average inhibition female (%) [1, 3]: 14.3%
- % inhibition female (individual replicates) R1 [1, 3]: 14.3%
- % inhibition female (individual replicates) R3 [1, 3]: 3.2%
- % inhibition female (individual replicates) R4 [1, 3]: 8.4%
- HitlevelF [1, 4]: 0
- Average inhibition male (%) [2, 3]: 45.7%
- % inhibition male (individual replicates) R1 [2, 3]: 47.5%
- % inhibition male (individual replicates) R3 [2, 3]: 7.0%
- % inhibition male (individual replicates) R4 [2, 3]: 68.9%
- HitlevelM [2, 5]: 2
- Activity [2, 6]: 0

SMILES: CC(CCCCCC(=O)Nc1ccc(CC(C)NCCc2cccc(Cl)c2)cc1)NCCc1cccc(Cl)c1 (stereo not shown) [TCMDC-139800]
- Average inhibition female (%) [1, 3]: 20.4%
- % inhibition female (individual replicates) R1 [1, 3]: 18.8%
- % inhibition female (individual replicates) R3 [1, 3]: 1.8%
- % inhibition female (individual replicates) R4 [1, 3]: 5.6%
- HitlevelF [1, 7]: 1
- Average inhibition male (%) [2, 3]: 45.2%
- % inhibition male (individual replicates) R1 [2, 3]: 25.8%
- % inhibition male (individual replicates) R3 [2, 3]: -13.9%
- % inhibition male (individual replicates) R4 [2, 3]: 77.6%
- HitlevelM [2, 8]: 2

SMILES: CCOc1ccccc1CCNC(C)Cc1ccc(C(=O)Nc2ccc(CC(C)NCCc3cccc(Cl)c3)cc2)cc1 (stereo not shown) [TCMDC-139805]
- Average inhibition female (%) [1, 3]: 24.4%
- % inhibition female (individual replicates) R1 [1, 3]: 22.1%
- % inhibition female (individual replicates) R3 [1, 3]: 9.3%
- % inhibition female (individual replicates) R4 [1, 3]: 29.9%
- HitlevelF [1, 7]: 0
- Average inhibition male (%) [2, 3]: 59.5%
- % inhibition male (individual replicates) R1 [2, 3]: 59.5%
- % inhibition male (individual replicates) R3 [2, 3]: 21.2%
- % inhibition male (individual replicates) R4 [2, 3]: 86.9%
- HitlevelM [2, 8]: 3

SMILES: CC(Cc1ccc(COc2ccc(CC(CO)NCCc3cccc(Cl)c3)cc2)cc1)NCCc1cccc(Cl)c1.Cl (stereo not shown) [TCMDC-139844]
- % inhibition female (individual replicates) R1 [1, 9]: -3.0%
- % inhibition female (individual replicates) R3 [1, 9]: -11.7%
- % inhibition female (individual replicates) R4 [1, 9]: 12.8%
- Average inhibition female (%) [1, 6]: 1.7%
- % inhibition male (individual replicates) R1 [2, 9]: -13.5%
- % inhibition male (individual replicates) R3 [2, 9]: 14.9%
- % inhibition male (individual replicates) R4 [2, 9]: 2.8%
- Average inhibition male (%) [2, 6]: 1.7%

SMILES: CC(Cc1ccc(NC(=O)c2ccc(CNCCc3ccccc3)cc2)cc1)NCCc1cccc(Cl)c1.Cl (stereo not shown) [TCMDC-139867]
- Average inhibition female (%) [1, 3]: 17.5%
- % inhibition female (individual replicates) R1 [1, 3]: 19.8%
- % inhibition female (individual replicates) R3 [1, 3]: 17.3%
- % inhibition female (individual replicates) R4 [1, 3]: 1.2%
- HitlevelF [1, 4]: 0
- Average inhibition male (%) [2, 3]: 35.8%
- % inhibition male (individual replicates) R1 [2, 3]: 30.2%
- % inhibition male (individual replicates) R3 [2, 3]: 5.8%
- % inhibition male (individual replicates) R4 [2, 3]: 68.9%
- HitlevelM [2, 5]: 1
- Activity [2, 6]: 0

SMILES: CCCCCCCN1CC[C@@H](CCCc2ccnc3ccc(OC)cc23)[C@@H](CNC)C1.O=C(O)C(=O)O [TCMDC-139875]
- Average inhibition female (%) [1, 3]: 34.8%
- % inhibition female (individual replicates) R1 [1, 3]: 28.9%
- % inhibition female (individual replicates) R3 [1, 3]: 7.1%
- % inhibition female (individual replicates) R4 [1, 3]: 50.9%
- HitlevelF [1, 7]: 2
- Average inhibition male (%) [2, 3]: 45.5%
- % inhibition male (individual replicates) R1 [2, 3]: 37.4%
- % inhibition male (individual replicates) R3 [2, 3]: 18.3%
- % inhibition male (individual replicates) R4 [2, 3]: 73.6%
- HitlevelM [2, 8]: 2

SMILES: COc1ccc(OC)c(C=CC(=O)NC2CCC(CN3CCC(c4c[nH]c5ccccc45)CC3)CC2)c1 (stereo not shown) [TCMDC-139893]
- % inhibition female (individual replicates) R1 [1, 9]: 6.5%
- % inhibition female (individual replicates) R3 [1, 9]: -21.7%
- % inhibition female (individual replicates) R4 [1, 9]: -6.1%
- Average inhibition female (%) [1, 6]: -1.6%
- % inhibition male (individual replicates) R1 [2, 9]: 4.2%
- % inhibition male (individual replicates) R3 [2, 9]: -21.0%
- % inhibition male (individual replicates) R4 [2, 9]: 20.2%
- Average inhibition male (%) [2, 6]: 1.9%

SMILES: CN(C)CCCNCc1ccc(-c2ccc(C(F)(F)F)cc2)cc1 [TCMDC-140011]
- Average inhibition female (%) [1, 3]: 26.9%
- % inhibition female (individual replicates) R1 [1, 3]: 39.3%
- % inhibition female (individual replicates) R3 [1, 3]: -6.8%
- % inhibition female (individual replicates) R4 [1, 3]: 25.9%
- HitlevelF [1, 7]: 0
- Average inhibition male (%) [2, 3]: 54.2%
- % inhibition male (individual replicates) R1 [2, 3]: 60.9%
- % inhibition male (individual replicates) R3 [2, 3]: 33.7%
- % inhibition male (individual replicates) R4 [2, 3]: 61.6%
- HitlevelM [2, 8]: 3
